Assay results from patent publication US11786555B2, “RAR selective agonists in combination with immune modulators for cancer immunotherapy” (IO THERAPEUTICS, INC., priority 2017, dated 2023).

Columns and labels:
Experiment in all cases: CFU experiments, off and on stroma
Format in all cases: cell-based
Kasumi-1 cells = conditions: 10^−6 M ATRA, IRX5183, or 10^−7 M AM80
Description: (§1) Data across three independent experiments.

NB4 cells = conditions: 10^−7 M ATRA, IRX5183, or 10^−8 M AM80
Description: as §1

OCI-AML3 cells = conditions: 10^−6 M ATRA, IRX5183, or 10^−7 M AM80
Description: as §1

Measured: clonogenic growth (CFU), differentiation and elimination of AML

CC1=C(/C=C/C(C)=C/C=C/C(C)=C/C(=O)O)C(C)(C)CCC1 [ATRA, all-trans retinoic acid]
stroma blockage: all assays above
